Data published in PubChem BioAssay (NCI).
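Protocol summary: plate cells (96-well), add compound at 5 concentrations, incubate 48 h, interpolate endpoints linearly. Definition used: TGI = concentration required for complete inhibition of growth.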

Assays:
Test in all cases: NCI tumour cell line growth inhibition, 48 h
HCT-116 colon = test system: HCT-116 colon
SR leukemia = test system: SR leukemia
MDA-N = test system: MDA-N
HOP-92 NSCLC = test system: HOP-92 NSCLC
DMS 114 small cell lung = test system: DMS 114 small cell lung
RXF-631 renal = test system: RXF-631 renal
P388/ADR leukemia = test system: P388/ADR leukemia
HOP-18 NSCLC = test system: HOP-18 NSCLC
P388 leukemia = test system: P388 leukemia
SN12K1 renal = test system: SN12K1 renal
BT-549 breast = test system: BT-549 breast

| Compound | TGI (HCT-116 colon) | TGI (SR leukemia) | TGI (MDA-N) | TGI (HOP-92 NSCLC) | TGI (DMS 114 small cell lung) | TGI (RXF-631 renal) | TGI (P388/ADR leukemia) | TGI (HOP-18 NSCLC) | TGI (P388 leukemia) | TGI (SN12K1 renal) | TGI (BT-549 breast) |
| --- | --- | --- | --- | --- | --- | --- | --- | --- | --- | --- | --- |
| COP(C)(=O)/C(Cc1ccccc1)=N\O (stereo unspecified) | > 100 µM | > 100 µM | > 100 µM | > 100 µM | – | – | – | – | – | – | – |
| CC(C)(C)[Si](C)(C)OCCCC#CCO | – | – | – | – | > 100 µM | > 100 µM | – | – | – | – | – |
| O=P(O)(O)C(CSc1ccccc1)P(=O)(O)O | > 100 µM | – | – | > 100 µM | > 100 µM | – | > 100 µM | > 100 µM | > 100 µM | > 100 µM | – |
| O=C(NO)c1coc2ccccc2c1=O | – | – | – | – | > 100 µM | > 100 µM | – | – | – | – | – |
| C=C1c2c(cc3c(c2O)c(=O)c2ccccc2n3C)OC1(C)C | – | – | – | 65.9 µM | > 100 µM | > 100 µM | – | > 100 µM | – | – | – |
| CC[N+]1(C)CCC(O)(c2ccc(Cl)cc2)C(C(=O)c2ccc(Cl)cc2)C1 (stereo unspecified) | 46.7 µM | 36.4 µM | 41.3 µM | – | – | – | – | – | – | – | – |
| Cc1c(-c2cc3n(n2)C(c2cccs2)C(C#N)=C(c2ccccc2)N3)c(=O)n(-c2ccccc2)n1C (stereo unspecified) | > 100 µM | – | – | > 100 µM | > 100 µM | – | > 100 µM | > 100 µM | > 100 µM | > 100 µM | – |
| COc1ccc(Cc2nc3cc(C(F)(F)F)ccc3n2CCCN(C)C)cc1 | – | – | – | > 100 µM | – | – | – | – | – | – | 43.4 µM |
